Measurements reported in patent publication US11419335B2, “N-arylated analogues and uses thereof” (University of Florida Research Foundation, Incorporated, priority 2016, dated 2022).
Where two headings read alike, the source gives them in different places. Marks after values point to notes of the source that are not given here.

Key:
[1] = test system: methicillin-resistant Staphylococcus aureus MRSA-2 (clinical isolate); assay: MIC broth microdilution, MRSA-2; assay type: cell-based; conditions: for MIC: Staphylococcus aureus
How it was run: (§1)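 CLSI broth microdilution in Luria Broth: eleven two-fold compound dilutions (0.10 to 100 μM), each well inoculated with ~10^5 log-phase cells. MIC is the lowest concentration preventing growth after 16 to 18 hours at 37° C, supported by OD600. DMSO vehicle, top 1% v/v.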

MRSA BAA-1707 = assay: MIC broth microdilution, MRSA BAA-1707; assay type: cell-based, Staphylococcus aureus; conditions: for MIC: Staphylococcus aureus
How it was run: (§2)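 Broth microdilution per CLSI, with eleven two-fold serial compound dilutions in Luria Broth spanning 0.10 to 100 μM. DMSO vehicle control topped at 1% v/v; at least three independent experiments.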

[2] = test system: methicillin-resistant Staphylococcus epidermidis (MRSE strain ATCC 35984); assay: MIC broth microdilution, MRSE 35984; assay type: cell-based; conditions: for MIC: Staphylococcus epidermidis
How it was run: as §1

[3] = test system: vancomycin-resistant Enterococcus faecium (VRE strain ATCC 700221); assay: MIC broth microdilution, VRE 700221; assay type: cell-based
How it was run: as §1

[4] = test system: Acinetobacter baumannii (ATCC 1794); assay: MIC broth microdilution, A. baumannii 1794; assay type: cell-based; conditions: for MIC: Acinetobacter baumannii, ATCC1794
How it was run: as §1

[5] = test system: Pseudomonas aeruginosa (PAO1); assay: MIC broth microdilution, PAO1; assay type: cell-based
How it was run: as §1

[6] = test system: methicillin-sensitive Staphylococcus aureus ATCC 29213; assay: MIC broth microdilution, S. aureus 29213; assay type: cell-based; conditions: Staphylococcus aureus, ATCC29213; Table 3
How it was run: as §2

[7] = test system: MRSA-1 (clinical isolate); assay: MIC broth microdilution, MRSA-1; assay type: cell-based, Staphylococcus aureus; conditions: Staphylococcus aureus, MRSA; Table 3
Procedure: (§3) The minimum inhibitory concentration (MIC) for each tested compound was determined by the broth microdilution method as recommended by the Clinical and Laboratory Standards Institute (CLSI). In a 96-well plate, eleven two-fold serial dilutions of each compound were made in a final volume of 100 μL Luria Broth. Each well was inoculated with ˜10^5 bacterial cells at the initial time of incubation, prepared from a fresh log phase culture (OD600 of 0.5 to 1.0 depending on bacterial strain). […] (MIC values were supported by spectrophotometric readings at OD600). DMSO served as our vehicle and negative control in each microdilution MIC assay. DMSO was serially diluted with a top concentration of 1% v/v.
(§4) Each well was inoculated with ˜10^5 bacterial cells at the initial time of incubation, prepared from a fresh log phase culture (OD600 of 0.5 to 1.0 depending on bacterial strain). […] The concentration range tested for each compound during this study was 0.10 to 100 μM. DMSO served as our vehicle and negative control in each microdilution MIC assay. DMSO was serially diluted with a top concentration of 1% v/v. All MIC values were obtained from a minimum of three independent experiments.

[8] = test system: SA-129 (clinical isolate); assay: MIC broth microdilution, SA-129; assay type: cell-based, Staphylococcus aureus; conditions: Staphylococcus aureus; Table 3
Procedure: as §3, §4

[9] = test system: SA-147 (clinical isolate); assay: MIC broth microdilution, SA-147; assay type: cell-based, Staphylococcus aureus; conditions: Staphylococcus aureus; Table 3
Procedure: as §3, §4

[10] = test system: SA-138 (clinical isolate); assay: MIC broth microdilution, SA-138; assay type: cell-based, Staphylococcus aureus; conditions: Staphylococcus aureus; Table 3
Procedure: as §3, §4

[11] = test system: SA-156 (clinical isolate); assay: MIC broth microdilution, SA-156; assay type: cell-based, Staphylococcus aureus; conditions: Staphylococcus aureus; Table 3
Procedure: as §3, §4

MRSA BAA-44 = assay: MIC broth microdilution, MRSA BAA-44; assay type: cell-based, Staphylococcus aureus; conditions: Staphylococcus aureus; Table 3
Procedure: as §3, §4

[12] = test system: human red blood cells (hRBC); assay: Hemolysis of red blood cells; assay type: cell-based
How it was run: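 hRBCs (2% suspension) exposed to compounds at 0.2–200 μM (ten-point dose-response) for 1 h at 37 °C; after centrifugation, haemoglobin release read as supernatant OD at 405 nm. DMSO set as 0% and Triton X as 100% haemolysis; HC50 from dose-response curves, three independent experiments.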

## CCCCCCCCCCCCCCCCn1cc[n+](Cc2ccccc2)c1C [NH125, 3-benzyl-1-hexadecyl-2-methyl-1H-imidazol-3-ium bromide, reference compound]
[1]; BAA-1707 / MRSA, MRSA-2 and MRSA BAA-1707, read-out: MIC against two MRSA strains
  MIC: 2.35 to 4.69 µM
[1]; MRSA, Table 1, read-out: MIC MRSA-2
  MIC: 4.69 µM
[1]; MRSA, Table 4, read-out: MIC MRSA-2
  MIC: 4.69 µM
[1]; MRSA, Table 3, read-out: MIC MRSA-2
  MIC: 3.13 µM
[1]; Table 1A
  MIC MRSA-2: 4.69^a
MRSA BAA-1707; Table 1, read-out: MIC MRSA BAA-1707
  MIC: 2.35 µM
MRSA BAA-1707; Table 2, read-out: MRSA BAA-1707 MIC
  MIC: 2.35 µM
MRSA BAA-1707; Table 4, read-out: MIC MRSA 1707
  MIC: 2.35 µM
MRSA BAA-1707; Table 3
  MIC MRSA BAA-1707: 2.35^a μM
[2]; Table 1, read-out: MIC MRSE 35984
  MIC: 4.69 µM
[2]; Table 2, read-out: MRSE 35984 MIC
  MIC: 4.69 µM
[2]; Table 1A
  MIC S. epidermidis MRSE 35984: 4.69^a
[2]; Table 4
  MIC MRSE 35984: 4.69a micromolar
[3]; Table 1, read-out: MIC VRE 700221
  MIC: 3.13 µM
[3]; Table 1A
  MIC E. faecium VRE 700221: 3.13 µM
[3]; Table 2, read-out: VRE 700221 MIC
  MIC: 3.13 µM
[3]; Table 4
  MIC VRE 700221: 3.13 µM
[4]; Table 1, read-out: MIC A. baumannii 1794
  MIC: 37.5 µM
[4]; Table 4, read-out: MIC A. bau. 1794
  MIC: 37.5 µM
[4]; Table 1A
  MIC A. baumannii 1794: 37.5^a
[5]; Pseudomonas aeruginosa, PAO1, Table 1
  MIC: > 100 µM
[5]; Table 1A
  MIC PAO1: > 100 µM
[5]; Table 4
  MIC PAO1: >100 µM
[6]
  MIC: 4.69 µM
[7]
  MIC: 6.25 µM
[8]
  MIC: 4.69 µM
[9]
  MIC: 4.69 µM
[10]
  MIC: 6.25 µM
[11]
  MIC: 6.25 µM
MRSA BAA-44
  MIC: 4.69 µM
[12]
  hemolytic activity: potent hemolytic activities
[12]; human, 1 h, pH 7.2
  HC50: 35.6 µM
